Measurements from ChEMBL document CHEMBL1201861, “Genomics of Drug Sensitity in Cancer screening data, Wellcome Trust Sanger Institute”.

How the values were obtained:
Test in all cases: cells
Type in all cases: functional, cell-based
Settings in all cases: Homo sapiens
[1] = system: COLO-792
Description: SANGER: Inhibition of human COLO-792 cell growth in a cell viability assay.

[2] = system: COR-L105;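 further: cell growth inhibition determined with a viability assay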
Description: SANGER: Inhibition of human COR-L105 cell growth in a cell viability assay.

[3] = system: DBTRG-05MG;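 further: cell viability assay measuring growth inhibition of human DBTRG-05MG cells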
Description: SANGER: Inhibition of human DBTRG-05MG cell growth in a cell viability assay.

[4] = system: EFO-21;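 further: growth inhibition of EFO-21 cells measured with a viability assay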
Description: SANGER: Inhibition of human EFO-21 cell growth in a cell viability assay.

[5] = system: EFO-27;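 further: growth inhibition of EFO-27 cells, read out with a cell viability assay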
Description: SANGER: Inhibition of human EFO-27 cell growth in a cell viability assay.

[6] = system: EW-22;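 further: growth inhibition of the EW-22 cell line, measured with a cell viability readout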
Description: SANGER: Inhibition of human EW-22 cell growth in a cell viability assay.

[7] = system: H4
Description: SANGER: Inhibition of human H4 cell growth in a cell viability assay.

[8] = system: HCC1419;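 further: growth inhibition of human HCC1419 cells, read out as cell viability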
Description: SANGER: Inhibition of human HCC1419 cell growth in a cell viability assay.

[9] = system: HCC38;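 further: cell viability assay on the human HCC38 cell line, with IC50 marking the concentration that inhibits cell growth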
Description: SANGER: Inhibition of human HCC38 cell growth in a cell viability assay.

[10] = system: HCT-116
Description: SANGER: Inhibition of human HCT-116 cell growth in a cell viability assay.

[11] = system: HLE;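 further: growth inhibition of human HLE cells, read out by a cell viability assay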
Description: SANGER: Inhibition of human HLE cell growth in a cell viability assay.

[12] = system: HT-1080
Description: SANGER: Inhibition of human HT-1080 cell growth in a cell viability assay.

[13] = system: HT-3;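 further: growth inhibition measured with a cell viability readout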
Description: SANGER: Inhibition of human HT-3 cell growth in a cell viability assay.

[14] = system: Hs-578T
Description: SANGER: Inhibition of human Hs-578-T cell growth in a cell viability assay.

[15] = system: HuO9;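 further: growth inhibition of HuO9 cells, read out with a cell viability assay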
Description: SANGER: Inhibition of human HuO9 cell growth in a cell viability assay.

[16] = system: J82;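 further: growth inhibition of J82 cells, read out with a cell viability assay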
Description: SANGER: Inhibition of human J82 cell growth in a cell viability assay.

[17] = system: Kasumi 1;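 further: growth inhibition of human Kasumi-1 cells, read out by a cell viability assay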
Description: SANGER: Inhibition of human KASUMI-1 cell growth in a cell viability assay.

[18] = system: KU-19-19
Description: SANGER: Inhibition of human KU-19-19 cell growth in a cell viability assay.

[19] = system: KYSE-510;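 further: cell viability readout used to measure how strongly growth of the cell line is suppressed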
Description: SANGER: Inhibition of human KYSE-510 cell growth in a cell viability assay.

[20] = system: KYSE-520 cell line;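 further: growth inhibition of human KYSE-520 cells, read out with a viability assay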
Description: SANGER: Inhibition of human KYSE-520 cell growth in a cell viability assay.

[21] = system: KYSE-70 cell line;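 further: cell viability assay read-out, with IC50 expressing suppression of KYSE-70 cell growth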
Description: SANGER: Inhibition of human KYSE-70 cell growth in a cell viability assay.

[22] = system: LK-2;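 further: growth inhibition of LK-2 cells, read out with a viability assay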
Description: SANGER: Inhibition of human LK-2 cell growth in a cell viability assay.

[23] = system: LU-99A;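 further: growth inhibition of LU-99A cells, read out with a cell viability assay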
Description: SANGER: Inhibition of human LU-99A cell growth in a cell viability assay.

[24] = system: MDA-MB-175-VII
[25] = system: MG-63;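 further: growth inhibition of human MG-63 cells, read out with a cell viability assay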
Description: SANGER: Inhibition of human MG-63 cell growth in a cell viability assay.

[26] = system: NB7;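 further: growth inhibition of NB7 cells, read out with a cell viability assay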
Description: SANGER: Inhibition of human NB7 cell growth in a cell viability assay.

[27] = system: NCI-H1651;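 further: Read-out is a cell viability assay, with IC50 expressing inhibition of NCI-H1651 cell growth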
Description: SANGER: Inhibition of human NCI-H1651 cell growth in a cell viability assay.

[28] = system: NCI-H1792;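 further: growth inhibition of human NCI-H1792 cells, read out as cell viability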
Description: SANGER: Inhibition of human NCI-H1792 cell growth in a cell viability assay.

[29] = system: NCI-H2122;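 further: growth inhibition of the cells, read out with a cell viability assay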
Description: SANGER: Inhibition of human NCI-H2122 cell growth in a cell viability assay.

[30] = system: NCI-H441;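 further: growth inhibition of NCI-H441 cells, read out with a cell viability assay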
Description: SANGER: Inhibition of human NCI-H441 cell growth in a cell viability assay.

[31] = system: NCI-H596;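 further: growth inhibition of NCI-H596 cells, read out with a cell viability assay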
Description: SANGER: Inhibition of human NCI-H596 cell growth in a cell viability assay.

[32] = system: OAW-42;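 further: growth inhibition of OAW-42 cells, read out with a cell viability assay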
Description: SANGER: Inhibition of human OAW-42 cell growth in a cell viability assay.

[33] = system: PC-14;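 further: cell viability assay measuring inhibition of PC-14 cell growth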
Description: SANGER: Inhibition of human PC-14 cell growth in a cell viability assay.

[34] = system: RERF-LC-MS;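 further: growth inhibition of human RERF-LC-MS cells, read out by a cell viability assay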
Description: SANGER: Inhibition of human RERF-LC-MS cell growth in a cell viability assay.

[35] = system: RT-112
Description: SANGER: Inhibition of human RT-112 cell growth in a cell viability assay.

[36] = system: SCC-9;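 further: Read-out is a cell viability assay, with values giving inhibition of cell growth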
Description: SANGER: Inhibition of human SCC-9 cell growth in a cell viability assay.

[37] = system: SF-295;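 further: growth inhibition of SF-295 cells, read out with a cell viability assay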
Description: SANGER: Inhibition of human SF295 cell growth in a cell viability assay.

[38] = system: SK-MEL-24;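 further: growth inhibition read out by a cell viability assay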
Description: SANGER: Inhibition of human SK-MEL-24 cell growth in a cell viability assay.

[39] = system: SNU-387
Description: SANGER: Inhibition of human SNU-387 cell growth in a cell viability assay.

[40] = system: SW1783;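 further: cell growth inhibition measured with a viability assay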
Description: SANGER: Inhibition of human SW1783 cell growth in a cell viability assay.

[41] = system: SW948;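 further: growth inhibition of SW948 cells, read out with a cell viability assay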
Description: SANGER: Inhibition of human SW948 cell growth in a cell viability assay.

[42] = system: SiHa;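 further: Viability-based readout of growth inhibition in SiHa cells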
Description: SANGER: Inhibition of human SiHa cell growth in a cell viability assay.

[43] = system: T84;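 further: growth inhibition measured with a cell viability readout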
Description: SANGER: Inhibition of human T84 cell growth in a cell viability assay.

[44] = system: 639-V;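 further: growth inhibition of 639-V cells, read out with a cell viability assay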
Description: SANGER: Inhibition of human 639-V cell growth in a cell viability assay.

[45] = system: 8305C
Description: SANGER: Inhibition of human 8305C cell growth in a cell viability assay.

[46] = system: A-431;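 further: growth inhibition of A-431 cells, determined with a cell viability read-out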
Description: SANGER: Inhibition of human A431 cell growth in a cell viability assay.

[47] = system: AU565;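 further: cell viability assay measuring growth inhibition of human AU565 cells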
Description: SANGER: Inhibition of human AU565 cell growth in a cell viability assay.

[48] = system: BFTC-905
Description: SANGER: Inhibition of human BFTC-905 cell growth in a cell viability assay.

[49] = system: U-251;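 further: growth inhibition of human U-251 cells, read out through a cell viability assay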
Description: SANGER: Inhibition of human U251 cell growth in a cell viability assay.

[50] = system: UACC-893
Description: SANGER: Inhibition of human UACC-893 cell growth in a cell viability assay.

For `Cn1cc(/C=C2\C(=O)Nc3cccnc32)c2ccccc21`, the IC50 [1] was greater than 2000 nM, the IC50 [2] was 494 nM and the IC50 [3] was greater than 2000 nM. It also gave an IC50 [4] greater than 2000 nM, an IC50 [5] greater than 2000 nM and an IC50 [6] greater than 2000 nM. The IC50 [7] was greater than 2000 nM, the IC50 [8] was greater than 2000 nM and the IC50 [9] was greater than 2000 nM. The IC50 [10] was greater than 2000 nM, the IC50 [11] was greater than 2000 nM and the IC50 [12] was greater than 2000 nM. For the same molecule, the IC50 [13] was greater than 2000 nM, the IC50 [14] was greater than 2000 nM and the IC50 [15] was greater than 2000 nM. For the same molecule, the IC50 [16] was greater than 2000 nM, the IC50 [17] was greater than 2000 nM and the IC50 [18] was greater than 2000 nM. The IC50 [19] was greater than 2000 nM, the IC50 [20] was greater than 2000 nM and the IC50 [21] was greater than 2000 nM. It also gave an IC50 [22] greater than 2000 nM, an IC50 [23] greater than 2000 nM and an IC50 [24] greater than 2000 nM. It also gave an IC50 [25] greater than 2000 nM, an IC50 [26] of 1980 nM and an IC50 [27] greater than 2000 nM. For the same molecule, the IC50 [28] was greater than 2000 nM, the IC50 [29] was greater than 2000 nM and the IC50 [30] was greater than 2000 nM. For the same molecule, the IC50 [31] was greater than 2000 nM, the IC50 [32] was greater than 2000 nM and the IC50 [33] was greater than 2000 nM. The IC50 [34] was greater than 2000 nM, the IC50 [35] was greater than 2000 nM and the IC50 [36] was greater than 2000 nM. For the same molecule, the IC50 [37] was greater than 2000 nM, the IC50 [38] was greater than 2000 nM and the IC50 [39] was greater than 2000 nM. For the same molecule, the IC50 [40] was greater than 2000 nM, the IC50 [41] was greater than 2000 nM and the IC50 [42] was greater than 2000 nM. The IC50 [43] was greater than 2000 nM, the IC50 [44] was greater than 2000 nM and the IC50 [45] was greater than 2000 nM. For the same molecule, the IC50 [46] was greater than 2000 nM, the IC50 [47] was greater than 2000 nM and the IC50 [48] was greater than 2000 nM. It also gave an IC50 [49] greater than 2000 nM and an IC50 [50] greater than 2000 nM.
With `CC[C@]1(O)C[C@@H]2CN(CCc3c([nH]c4ccccc34)[C@@](C(=O)OC)(c3cc4c(cc3OC)N(C)[C@H]3[C@@](O)(C(=O)OC)[C@H](OC(C)=O)[C@]5(CC)C=CCN6CC[C@]43[C@@H]65)C2)C1` [VINBLASTINE] the IC50 [1] was 25.6 nM, the IC50 [2] was 65.7 nM and the IC50 [3] was greater than 100 nM. For the same molecule, the IC50 [4] was 44 nM, the IC50 [5] was 7.45 nM and the IC50 [6] was 29.3 nM. It also gave an IC50 [7] of 5.84 nM, an IC50 [8] of 57.2 nM and an IC50 [9] of 58.4 nM. It also gave an IC50 [10] of 3.63 nM, an IC50 [11] of 4.23 nM and an IC50 [12] of 4.23 nM. For the same molecule, the IC50 [13] was 37.1 nM, the IC50 [14] was 17.3 nM and the IC50 [15] was 12.6 nM. The IC50 [16] was 68.5 nM, the IC50 [17] was 8.06 nM and the IC50 [18] was 43.7 nM. It also gave an IC50 [19] of 5.87 nM, an IC50 [20] of 47.6 nM and an IC50 [21] of 48.4 nM. For the same molecule, the IC50 [22] was 7.5 nM, the IC50 [23] was 20.8 nM and the IC50 [24] was greater than 100 nM. The IC50 [25] was 14.2 nM, the IC50 [26] was greater than 100 nM and the IC50 [27] was 23 nM. The IC50 [28] was 4.39 nM, the IC50 [29] was 3.44 nM and the IC50 [30] was greater than 100 nM. The IC50 [31] was greater than 100 nM, the IC50 [32] was greater than 100 nM and the IC50 [33] was 3.53 nM. The IC50 [34] was 15.1 nM, the IC50 [35] was 2.71 nM and the IC50 [36] was 10.7 nM. The IC50 [37] was 36.3 nM, the IC50 [38] was 31.5 nM and the IC50 [39] was 11.4 nM. It also gave an IC50 [40] of 85.5 nM, an IC50 [41] of 76 nM and an IC50 [42] greater than 100 nM. It also gave an IC50 [43] greater than 100 nM, an IC50 [44] of 5.61 nM and an IC50 [45] of 3.67 nM. It also gave an IC50 [46] greater than 100 nM, an IC50 [47] of 3.45 nM and an IC50 [48] of 3.77 nM. It also gave an IC50 [49] of 5.02 nM and an IC50 [50] of 98.3 nM.
With `COc1cc(Nc2c(C#N)cnc3cc(OCCCN4CCN(C)CC4)c(OC)cc23)c(Cl)cc1Cl` [BOSUTINIB] the IC50 [1] was greater than 2000 nM, the IC50 [2] was 1000 nM and the IC50 [3] was greater than 2000 nM. It also gave an IC50 [4] greater than 2000 nM, an IC50 [5] of 1690 nM and an IC50 [6] greater than 2000 nM. The IC50 [7] was 1240 nM, the IC50 [8] was greater than 2000 nM and the IC50 [9] was greater than 2000 nM. The IC50 [10] was greater than 2000 nM, the IC50 [11] was greater than 2000 nM and the IC50 [12] was 553 nM. The IC50 [13] was greater than 2000 nM, the IC50 [14] was greater than 2000 nM and the IC50 [15] was greater than 2000 nM. The IC50 [16] was greater than 2000 nM, the IC50 [17] was 723 nM and the IC50 [18] was greater than 2000 nM. The IC50 [19] was greater than 2000 nM, the IC50 [20] was greater than 2000 nM and the IC50 [21] was greater than 2000 nM. The IC50 [22] was greater than 2000 nM, the IC50 [23] was greater than 2000 nM and the IC50 [24] was greater than 2000 nM. It also gave an IC50 [25] greater than 2000 nM, an IC50 [26] of 82.3 nM and an IC50 [27] greater than 2000 nM. It also gave an IC50 [28] greater than 2000 nM, an IC50 [29] greater than 2000 nM and an IC50 [30] greater than 2000 nM. It also gave an IC50 [31] greater than 2000 nM, an IC50 [32] greater than 2000 nM and an IC50 [33] of 1290 nM. It also gave an IC50 [34] greater than 2000 nM, an IC50 [35] greater than 2000 nM and an IC50 [36] greater than 2000 nM. It also gave an IC50 [37] greater than 2000 nM, an IC50 [38] greater than 2000 nM and an IC50 [39] greater than 2000 nM. For the same molecule, the IC50 [40] was greater than 2000 nM, the IC50 [41] was greater than 2000 nM and the IC50 [42] was greater than 2000 nM. For the same molecule, the IC50 [43] was greater than 2000 nM, the IC50 [44] was greater than 2000 nM and the IC50 [45] was greater than 2000 nM. The IC50 [46] was greater than 2000 nM, the IC50 [47] was greater than 2000 nM and the IC50 [48] was greater than 2000 nM. For the same molecule, the IC50 [49] was greater than 2000 nM and the IC50 [50] was greater than 2000 nM.
